{"source": "patent US20090317372A1", "about": "“SMALL MOLECULES FOR THE REDUCTION OF HIGH BLOOD GLUCOSE LEVEL” (priority 2008, published 2009)", "format_in_all_cases": "in vivo", "key": {"[1]": {"test_system": "ob/ob mice", "assay": "Glucose tolerance test with ob/ob mice", "protocol": "In this experiment, 43 days old ob/ob mice weighing 40.3±1.8-g on average were used. One group of mice (5 animals) remained untreated for the subsequent 14 days. Two other groups of mice (each including 5 animals) were treated on each day for 13 days with 4.5-mg/kg dose of CCcompound1. On the 14th day the first group received only i.p. injection of glucose (3-g/kg) (first column in TABLE 13); the second group first received s.c. injection of CCcompound1, followed six hours later by i.p. injection of glucose (3-g/kg) (second column in TABLE 13); the third group first received s.c. injection of CCcompound1, followed 45 min later by i.p. injection of glucose (3-g/kg) (third column in TABLE 13). In each case, blood was first drawn 1-5 min prior to the administration of glucose, followed by drawing blood samples at 30 min, 60 min, 120 min and 180 min. The results shown in TABLE 13 indicate that CCcompound1 can effectively lower blood glucose level even after administration of a large amount of glucose. […] This probably means that the effect of CCcompound1 on blood glucose level requires its physical presence in the circulation and is not mediated by a secondary mechanism."}, "[2]": {"test_system": "C57/BL/6 mice", "assay": "Blood glucose level in normal (non-diabetic) mice without glucose challenge", "conditions": "food deprived 2 h", "protocol": "Female C57/BL/6 mice (25-27-g body weight) were deprived of food for 2 hours and then injected with 4.5-mg/kg of CCcompound1. Blood samples for glucose measurements were taken from the eyes (canthus) just before the administration of CCcompound1 (0 min) as well as 30 min and 120 min after the administration of CCcompound1. Glucose concentrations in whole blood samples were immediately measured with the Fast Glucose C test. The data are the mean±std.dev. of 5 determinations, i.e. one determination with each of the 5 animals. […] In this experiment, the period of food deprivation was short enough that compensatory mechanisms could maintain the blood glucose level near the normal 5-mM value. The condition employed also reflects the human eating habits, because normally there is at least a 2 hours interval between meals and snacks. Thus, with normal subjects under normal conditions, CC compounds are not expected to appreciably change the physiological level of blood glucose level that is about 5-mM on average."}, "[3]": {"test_system": "BDF1 (C57/BL/6 female×DBA/2 male) mice", "assay": "Glucose tolerance test with BDF1 mice, CCcompound1 and sub-optimal insulin", "conditions": "CCcompound1 4.5-mg/kg i.p. −15 min and/or insulin 0.02 IU −10 min", "protocol": "In this experiment again, a sub-optimal dose of insulin was used to probe if CCcompound1 can enhance the effect of insulin on blood glucose. This time first generation hybrid BDF1 (C57/BL/6 female×DBA/2 male) adult (10-12 weeks old) male mice weighing 28-30-g and fasted for 14 hours before i.p. glucose administration (3-g/kg) were used. These mice were […] than mice in the previous experiment described under Example 5. None of the animals received any food during the experiment other than glucose. The animals received i.p. injections of 4.5-mg/kg of CCcompound1 and 0.02 IU of insulin 15 min and 10 min prior to glucose administration. Blood samples were taken and glucose concentrations in whole blood samples determined as described earlier. Each group included six animals. The data are the mean±std. dev. of 6 determinations, i.e. one determination with each of the six animals."}, "[4]": {"test_system": "Wistar rats", "assay": "Glucose tolerance test in starved rats", "protocol": "Male Wistar rats weighing 240-270-g were divided into 3 groups, each group consisting of 6 or 7 animals. To ensure standard conditions animals were starved for 14 hours before the start of the experiment. CCcompound1 and CCcompound3 were injected (i.p.) 30 min prior to injecting 3-g/kg of glucose (i.p.). Blood sugar values of the experimental animals were measured with the Fast Glucose C-test; blood samples were taken from the tail. The data are the mean±std. dev. of 6-7 determinations, i.e. one determination with each of the 6-7 animals in the respective groups."}, "[5]": {"test_system": "C57/BL/6 mice", "assay": "Glucose tolerance test with normal mice, PALP and CCcompound1 combined", "protocol": "Female C57/BL/6 mice weighing 24-26-g and fasted for 12 hours before i.p. glucose administration (3 g/kg) were used. None of the animals received any food during the experiment other than glucose. One group of animals was untreated while animals in other groups received subcutaneous (s.c.) injections of 2.0 or 4.5-mg/kg of CCcompound1 either 30 min or 60 min prior to glucose administration as indicated in TABLE 5. Two groups of animals received i.p. injections of 0.4-mg per mouse (˜16-mg per kg) of highly purified PALP 24 hours prior to glucose administration. Purification of PALP was described in detail earlier [Z. Kiss, U.S. Pat. No. 7,048,914, “Placental Alkaline Phosphatase to Control Diabetes]. Animals in one of the PALP treated group also received s.c. injections of 4.5-mg/kg of CCcompound1 30 min prior to glucose administration as indicated in TABLE 5. Blood samples were taken and glucose concentrations were immediately measured as described earlier. Each group included five animals. The data are the mean±std. dev. of 5 determinations, i.e. one determination with each of the five animals. “-min” and “-h” indicates the length of period in minutes and hours, respectively, elapsed between the administration of test agents (first) and glucose (second)."}}}
{"smiles": "Cc1c(OCC(O)C[N+](C)(C)C)cc2c(=O)c3ccccc3sc2c1C.[Cl-]", "note": "(stereo not shown) [CCcompound 1, [3-(3,4-Dimethyl-9-oxo-9H-thioxanthen-2-yloxy)-2-hydroxypropyl]trimethyl-ammonium chloride]", "values": [{"measurement": "Blood glucose", "setting": "[1]; 4.5-mg/kg daily 13 days, day 14 s.c. 45 min prior to glucose 3-g/kg i.p., 0 min", "value": "10.7 ± 0.2", "unit": "mM"}, {"measurement": "Blood glucose", "setting": "[1]; 4.5-mg/kg daily 13 days, day 14 s.c. 6 hours prior to glucose 3-g/kg i.p., 0 min", "value": "17.8 ± 0.3", "unit": "mM"}, {"measurement": "Blood glucose", "setting": "[1]; s.c. 45 min prior to glucose, 30 min", "value": "11.9 ± 0.4", "unit": "mM"}, {"measurement": "Blood glucose", "setting": "[1]; s.c. 45 min prior to glucose, 60 min", "value": "11.4 ± 0.3", "unit": "mM"}, {"measurement": "Blood glucose", "setting": "[1]; s.c. 45 min prior to glucose, 120 min", "value": "11.0 ± 0.3", "unit": "mM"}, {"measurement": "Blood glucose", "setting": "[1]; s.c. 45 min prior to glucose, 180 min", "value": "10.9 ± 0.3", "unit": "mM"}, {"measurement": "Blood glucose", "setting": "[1]; s.c. 6 hours prior to glucose, 30 min", "value": "20.7 ± 0.2", "unit": "mM"}, {"measurement": "Blood glucose", "setting": "[1]; s.c. 6 hours prior to glucose, 60 min", "value": "20.2 ± 0.2", "unit": "mM"}, {"measurement": "Blood glucose", "setting": "[1]; s.c. 6 hours prior to glucose, 120 min", "value": "19.6 ± 0.2", "unit": "mM"}, {"measurement": "Blood glucose", "setting": "[1]; s.c. 6 hours prior to glucose, 180 min", "value": "18.9 ± 0.3", "unit": "mM"}, {"measurement": "Blood glucose", "setting": "[2]; 0 min, just before 4.5-mg/kg", "value": "5.1 ± 0.5", "unit": "mM"}, {"measurement": "Blood glucose", "setting": "[2]; 30 min after 4.5-mg/kg", "value": "4.9 ± 0.4", "unit": "mM"}, {"measurement": "Blood glucose", "setting": "[2]; 120 min after 4.5-mg/kg", "value": "4.9 ± 0.6", "unit": "mM"}, {"measurement": "Blood glucose", "setting": "[3]; 0 min", "value": "3.1 ± 0.2", "unit": "mM"}, {"measurement": "Blood glucose", "setting": "[3]; 30 min", "value": "4.8 ± 0.3", "unit": "mM"}, {"measurement": "Blood glucose", "setting": "[3]; 60 min", "value": "3.5 ± 0.2", "unit": "mM"}, {"measurement": "Blood glucose", "setting": "[4]; rats starved 14 h, i.p. 30 min prior to glucose 3-g/kg i.p., 0 min", "value": "5.03 ± 0.44", "unit": "mM"}, {"measurement": "Blood glucose", "setting": "[4]; rats, i.p. 30 min prior to glucose, 30 min", "value": "9.21 ± 0.45", "unit": "mM"}, {"measurement": "Blood glucose", "setting": "[4]; rats, i.p. 30 min prior to glucose, 60 min", "value": "5.73 ± 0.39", "unit": "mM"}, {"measurement": "Blood glucose", "setting": "[4]; rats, i.p. 30 min prior to glucose, 90 min", "value": "5.11 ± 0.42", "unit": "mM"}, {"measurement": "Blood glucose", "setting": "[4]; rats, i.p. 30 min prior to glucose, 120 min", "value": "5.37 ± 0.36", "unit": "mM"}, {"measurement": "Blood glucose", "setting": "[5]; CC1 2 mg/kg s.c. −30 min, 0 min", "value": "3.7 ± 0.4", "unit": "mM"}, {"measurement": "Blood glucose", "setting": "[5]; CC1 2 mg/kg s.c. −30 min, 30 min", "value": "6.6 ± 0.4", "unit": "mM"}, {"measurement": "Blood glucose", "setting": "[5]; CC1 2 mg/kg s.c. −30 min, 60 min", "value": "4.9 ± 0.6", "unit": "mM"}, {"measurement": "Blood glucose", "setting": "[5]; CC1 2 mg/kg s.c. −30 min, 120 min", "value": "4.4 ± 0.5", "unit": "mM"}, {"measurement": "Blood glucose", "setting": "[5]; CC1 2 mg/kg s.c. −60 min, 0 min", "value": "3.9 ± 0.6", "unit": "mM"}, {"measurement": "Blood glucose", "setting": "[5]; CC1 2 mg/kg s.c. −60 min, 30 min", "value": "6.7 ± 0.5", "unit": "mM"}, {"measurement": "Blood glucose", "setting": "[5]; CC1 2 mg/kg s.c. −60 min, 60 min", "value": "5.2 ± 0.3", "unit": "mM"}, {"measurement": "Blood glucose", "setting": "[5]; CC1 2 mg/kg s.c. −60 min, 120 min", "value": "4.6 ± 0.3", "unit": "mM"}, {"measurement": "Blood glucose", "setting": "[5]; CC1 4.5 mg/kg s.c. −30 min, 0 min", "value": "3.6 ± 0.4", "unit": "mM"}, {"measurement": "Blood glucose", "setting": "[5]; CC1 4.5 mg/kg s.c. −30 min, 30 min", "value": "6.2 ± 0.4", "unit": "mM"}, {"measurement": "Blood glucose", "setting": "[5]; CC1 4.5 mg/kg s.c. −30 min, 60 min", "value": "4.5 ± 0.3", "unit": "mM"}, {"measurement": "Blood glucose", "setting": "[5]; CC1 4.5 mg/kg s.c. −30 min, 120 min", "value": "4.2 ± 0.4", "unit": "mM"}, {"measurement": "Blood glucose", "setting": "[5]; CC1 4.5 mg/kg s.c. −60 min, 0 min", "value": "3.8 ± 0.5", "unit": "mM"}, {"measurement": "Blood glucose", "setting": "[5]; CC1 4.5 mg/kg s.c. −60 min, 30 min", "value": "6.4 ± 0.3", "unit": "mM"}, {"measurement": "Blood glucose", "setting": "[5]; CC1 4.5 mg/kg s.c. −60 min, 60 min", "value": "4.5 ± 0.5", "unit": "mM"}, {"measurement": "Blood glucose", "setting": "[5]; CC1 4.5 mg/kg s.c. −60 min, 120 min", "value": "4.1 ± 0.6", "unit": "mM"}]}
